From ChEMBL document CHEMBL1122468, “Synthesis of (7R)-7H-indolo[3,4-gh][1,4]benzoxazines, a new class of D-heteroergolines with dopamine agonist activity” (J Med Chem, 1983)

Key:
[1] = biological target: T1, Cerebral cortex alpha adrenergic receptor (Bos taurus, UniProt Q28838+P18130); assay: In vitro affinity for alpha adrenergic receptor by displacement of 3[H]clonidine in calf cerebral cortex; format: tissue-based
T1 sequence (Q28838 whole entry): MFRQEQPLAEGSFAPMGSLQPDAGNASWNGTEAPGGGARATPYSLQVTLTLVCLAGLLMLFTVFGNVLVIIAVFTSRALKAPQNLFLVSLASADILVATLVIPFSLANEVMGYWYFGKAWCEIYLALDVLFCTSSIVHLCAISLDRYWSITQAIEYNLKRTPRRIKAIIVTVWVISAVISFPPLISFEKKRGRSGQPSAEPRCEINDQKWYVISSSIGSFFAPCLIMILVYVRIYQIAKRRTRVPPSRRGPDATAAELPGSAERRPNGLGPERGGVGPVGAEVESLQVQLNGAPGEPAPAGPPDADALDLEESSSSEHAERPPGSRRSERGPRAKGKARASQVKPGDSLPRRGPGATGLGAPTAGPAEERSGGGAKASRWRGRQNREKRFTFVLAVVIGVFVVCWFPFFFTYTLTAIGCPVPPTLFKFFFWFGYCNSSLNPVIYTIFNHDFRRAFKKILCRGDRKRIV
T1 sequence (P18130 whole entry): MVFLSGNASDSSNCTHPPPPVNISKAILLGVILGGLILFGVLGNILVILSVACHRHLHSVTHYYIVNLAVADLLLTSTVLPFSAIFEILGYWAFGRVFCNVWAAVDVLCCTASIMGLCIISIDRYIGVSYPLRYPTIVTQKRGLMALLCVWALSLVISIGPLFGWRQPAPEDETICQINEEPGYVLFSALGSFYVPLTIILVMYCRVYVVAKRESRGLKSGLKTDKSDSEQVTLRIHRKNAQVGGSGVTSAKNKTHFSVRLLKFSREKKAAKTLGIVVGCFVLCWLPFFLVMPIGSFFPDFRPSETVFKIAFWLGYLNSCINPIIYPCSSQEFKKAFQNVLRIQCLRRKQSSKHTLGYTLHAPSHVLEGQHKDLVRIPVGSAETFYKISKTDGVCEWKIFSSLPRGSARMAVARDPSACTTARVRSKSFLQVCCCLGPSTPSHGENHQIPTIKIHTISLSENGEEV

Dopamine receptor = assay: In vitro affinity for dopamine receptor by displacement of [3H]- apomorphine in rat striatal membranes; format: cell membranes, Membrane
Rattus norvegicus = assay: In vivo measure of dopaminergic activity by the induction of contralateral turning behavior in 6-hydroxydopamine (6-OHDA) lesioned rats, ip; format: functional
[2] = Rattus norvegicus, ip, read-out: ED50

Compound | IC50 [1] [nM] | IC50 (Dopamine receptor) [nM] | ED50 (Rattus norvegicus; [2]) [mg/kg] | ED50 (Rattus norvegicus) [mg/kg]
CN1CCO[C@@H]2c3cccc4[nH]cc(c34)C[C@H]21 | 27 | 28.9 | 0.18 | –
CCN1CCO[C@@H]2c3cccc4[nH]cc(c34)C[C@H]21 (stereo in doubt; 6b) | 15 | 4.65 | – | 0.09
CCCN1C[C@H](CSC)C[C@@H]2c3cccc4[nH]cc(c34)C[C@H]21 [PERGOLIDE] | – | – | 0.1 | –
CC(C)C[C@H]1C(=O)N2CCC[C@H]2[C@]2(O)O[C@](NC(=O)[C@@H]3C=C4c5cccc6[nH]c(Br)c(c56)C[C@H]4N(C)C3)(C(C)C)C(=O)N12 [BROMOCRIPTINE] | – | – | 2.8 | –
CCCCN1CCO[C@@H]2c3cccc4[nH]cc(c34)C[C@H]21 | 46 | 33 | 1.1 | –
c1cc2c3c(c[nH]c3c1)C[C@H]1NCCO[C@H]21 | 55 | 59.6 | 0.76 | –
CCCN1CCO[C@@H]2c3cccc4[nH]cc(c34)C[C@H]21 | 31 | 2.2 | 0.028 | –
CCN1CCO[C@@H]2c3cccc4[nH]cc(c34)C[C@H]21 (stereo in doubt; (+)6b) | 34 | 219 | – | 7.5
CCN1CCO[C@@H]2c3cccc4[nH]cc(c34)C[C@H]21 (stereo in doubt; (-)6b) | 7 | 2 | – | 0.027
CCN1CCO[C@@H]2c3cccc4[nH]cc(c34)C[C@H]21 (relative stereo) | 1354 | 1240 | – | >5
C=CCN1CCO[C@@H]2c3cccc4[nH]cc(c34)C[C@H]21 | 206 | 23 | 0.15 | –
